Measured values from patent US20060014723A1, “Anti-parasitic uses of borinic acid complexes” (priority 2004, published 2006).
≈ marks a conversion by molar mass, not a printed value.

How the values were obtained:
[1] = test system: P. falciparum K1; test: Malaria in vitro screening model (3H-hypoxanthine incorporation); format: cell-based, Plasmodium falciparum; details: for IC50: Plasmodium falciparum, K1
Description: […] P. falciparum K1 is used in this study. K1 (a clone originating from Thailand) is resistant to chloroquine and pyrimethamine. The strains are maintained in RPMI 1640 medium with 0.36 mM hypoxanthine, supplemented with 25 mM N 2-hydroxyethyipiperazine-N-2-ethane-sulphonic acid (HEPES), 25 mM NaHCO3, neomycin (100 U/mL) and 5 g/L of ALBUMAX® II (lipid-rich bovine serum albumin, GIBCO, Grand Island, N.Y., USA), together with 5% washed human A+ erythrocytes. All cultures and assays are conducted at 37° C. under an atmosphere of 4% CO2, 3% O2 and 93% N2. Cultures are kept in incubation chambers filled with the gas mixture. Subcultures are diluted to a parasitemia of between 0.1 and 0.5% and the medium is changed daily.
Antimalarial activity is assessed using an adaptation of the procedures described by Desjardins et al. (Antimicrob. Agents Chemother. 16:710-718, 1979), and Matile and Pink (In: Lefkovits, I. and Pernis, B. (Eds.), Immunological Methods Vol. IV, Academic Press, San Diego, pp. 221-234, 1990).
Stock drug solutions are prepared in 100% dimethylsulfoxide (DMSO) at 10 mg/mL, and heated or sonicated if necessary to dissolve the sample. After use, the stocks are kept at −20° C. For the assays, the compound is further diluted in serum-free culture medium and finally to the appropriate concentration in complete medium without hypoxanthine.
Assays are performed in sterile 96-well microtiter plates, each well containing 200 μl of parasite culture (0.15% parasitemia, 2.5% hematocrit) with or without serial drug solutions. Seven 2-fold dilutions are used, covering a range from […] to 0.078 μg/mL. For active compounds the highest concentration is lowered (e.g., to […]); for plant extracts the highest concentration is increased to 50 μg/mL. […] After 48 hours of incubation at 37° C., 0.5 μCi ^3H-hypoxanthine is added to each well. Cultures are incubated for a further 24 h before being harvested onto glass-fiber filters and washed with distilled water. The radioactivity is counted using a Betaplate liquid scintillation counter (Wallac, Zurich, Switzerland). The results are recorded as counts per minute per well at each drug concentration and expressed as percentage of the untreated controls. IC50 values are calculated from the sigmoidal inhibition curves using Microsoft EXCEL.

[2] = test system: T. b. rhodesiense STIB 900; test: African sleeping sickness in vitro screening model (Alamar Blue); format: cell-based, Trypanosoma brucei rhodesiense; details: for IC50: Trypanosoma brucei
Method in brief: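 Bloodstream-form trypomastigotes, 8×10^3/well, were grown in supplemented MEM with 15% horse serum, without hypoxanthine, at 37 °C in 5% CO2. They were exposed for 72 h to seven 3-fold dilutions from 90 to 0.123 μg/mL. Resazurin (Alamar Blue) was added for 2 h, fluorescence read at ex 536/em 588 nm, and IC50 taken as the mean of four values.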

[3] = test system: Trypanosoma cruzi Tulahuen C2C4 strain; test: Chagas disease in vitro screening model (beta-galactosidase strain in L-6 cells); format: cell-based; details: for IC50: Trypanosoma cruzi, TULAHUEN, L6, read-out: T. cruzi IC50
Method in brief: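 L-6 rat myoblasts in RPMI 1640/10% FBS at 37 °C were infected with 5×10^3 lacZ-expressing T. cruzi Tulahuen C2C4 trypomastigotes. CPRG/Nonidet substrate was read at 540 nm, and IC50 came from sigmoidal curves.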

[4] = test system: Leishmania donovani strain MHOM/ET1671L82; test: Leishmaniasis in vitro screening model (axenic amastigotes, Alamar Blue); format: cell-based; details: for IC50: Leishmania donovani, read-out: L. donovani IC50
Method in brief: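 Axenic L. donovani amastigotes (10^5 per well) from hamster spleen, grown at 37° C in SM medium pH 5.4 with 10% FBS, 5% CO2, exposed to serial 3-fold compound dilutions (30 to 0.041 μg/mL) for 72 h. Alamar Blue added for 2 h, fluorescence read (ex 536/em 588 nm); IC50 from sigmoidal curve versus control cultures.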

| SMILES | P. falciparum IC50 [1] | T. b. rhodesiense IC50 [2] | T. cruzi IC50 [3] | L. donovani IC50 [4] | IC50 [1] | IC50 [2] | IC50 [3] | IC50 [4] |
| --- | --- | --- | --- | --- | --- | --- | --- | --- |
| CSc1cccc(B(Oc2cccc3cccnc23)c2cccc(SC)c2)c1 [Compound 87] | 4.632 µg/mL | 0.3 µg/mL | 3.2 µg/mL | 0.39 µg/mL |  |  |  |  |
| CC1(C)COC(c2cccc(B(Oc3c(Cl)cc(Cl)c4cccnc34)c3cccc(F)c3)c2)=N1 [Compound 81] | 3.355 µg/mL | 1.9 µg/mL | 4.2 µg/mL | 0.18 µg/mL |  |  |  |  |
| Nc1cccc(C(=O)OB(c2ccc(Cl)cc2)c2ccc(Cl)cc2)n1 [Compound 50] | 0.6115 µg/mL | 9.45 µg/mL | 0.135 µg/mL | 0.23 µg/mL |  |  |  |  |
| Fc1cccc(B(Oc2cccc3cccnc23)c2ccccc2Cl)c1 [Compound 30, (2-Chlorophenyl)(3-fluorophenyl)borinic acid quinolin-8-yl ester] |  |  |  |  | 1.74 µg/mL (≈ 4.81 µM) | 0.305 µg/mL (≈ 0.843 µM) | 0.82 µg/mL (≈ 2.27 µM) | 0.58 µg/mL (≈ 1.6 µM) |
| C=CB(Oc1c(N(C)C)cc(Cl)c2cccnc12)c1ccnc(Cl)c1 [Compound 83] | 0.979 µg/mL | 0.715 µg/mL | 0.77 µg/mL | 1.1 µg/mL |  |  |  |  |
| COC(=O)c1cccnc1C(=O)OB(c1ccc(C)c(Cl)c1)c1ccc(C)c(Cl)c1 [Compound 73] | 2.997 µg/mL | 21.3 µg/mL | 7.2 µg/mL | 0.63 µg/mL |  |  |  |  |
| N#Cc1cccc(B(Oc2cccc3cccnc23)c2ccc(F)cc2F)c1 [Compound 96] | 3.035 µg/mL | 0.34 µg/mL | 3.3 µg/mL | 0.63 µg/mL |  |  |  |  |
| Fc1cc(B(Oc2cccc3cccnc23)c2ccc(Cl)c(F)c2)ccc1Cl [Compound 89] | 1.385 µg/mL | 0.41 µg/mL | 1.36 µg/mL | 0.38 µg/mL |  |  |  |  |
| O=C(O)CCCOc1cccnc1C(=O)OB(c1cccc(Cl)c1)c1cccc(Cl)c1 [Compound 75] | 0.494 µg/mL | 31.1 µg/mL | 8.9 µg/mL | 0.61 µg/mL |  |  |  |  |
| N#Cc1ccc(B(Oc2cccc3cccnc23)c2ccc(F)cc2F)cc1 [Compound 98] | 3.245 µg/mL | 0.345 µg/mL | 4.05 µg/mL | 0.59 µg/mL |  |  |  |  |
| Fc1cc(B(Oc2cccc3cccnc23)c2ccc(Cl)cc2)cc(C(F)(F)F)c1 [Compound 47, (4-Chlorophenyl)(3-fluoro-5-trifluoromethylphenyl)borinic acid quinolin-8-yl ester] |  |  |  |  | 2.07 µg/mL (≈ 4.82 µM) | 0.5 µg/mL (≈ 1.16 µM) | 1.7 µg/mL (≈ 3.96 µM) | 0.51 µg/mL (≈ 1.19 µM) |
| N#Cc1ccc(B(Oc2cccc3cccnc23)c2cc(F)ccc2F)cc1 [Compound 35, (4-Cyanophenyl)(2,5-difluorophenyl)borinic acid quinolin-8-yl ester] |  |  |  |  | 1.74 µg/mL (≈ 4.7 µM) | 0.275 µg/mL (≈ 0.743 µM) | 0.705 µg/mL (≈ 1.9 µM) | 0.38 µg/mL (≈ 1.03 µM) |
| N#Cc1ccc(B(Oc2cccc3cccnc23)c2ccc(F)c(F)c2)cc1 [Compound 97] | 4.036 µg/mL | 0.37 µg/mL | 3.45 µg/mL | 0.58 µg/mL |  |  |  |  |
| Fc1cccc(B(Oc2cccc3cccnc23)c2ccc(Cl)cc2F)c1 [Compound 43, (4-Chloro-2-fluorophenyl)(3-fluorophenyl)borinic acid quinolin-8-yl ester] |  |  |  |  | 1.83 µg/mL (≈ 4.82 µM) | 0.4 µg/mL (≈ 1.05 µM) | 0.825 µg/mL (≈ 2.17 µM) | 0.02 µg/mL (≈ 0.0527 µM) |
| C=CB(Oc1c(Cl)cc(Cl)c2ccc(C)nc12)c1cccnc1 [Compound 82] | 2.647 µg/mL | 1.19 µg/mL | 1.95 µg/mL | 0.22 µg/mL |  |  |  |  |
| CS(=O)(=O)Nc1ccc(B(Oc2cccc3cccnc23)c2cccc(Cl)c2)cc1 [Compound 108] | 2.417 µg/mL | 0.305 µg/mL | 4.95 µg/mL | 0.59 µg/mL |  |  |  |  |
| COc1ccc(B(Oc2cccc3cccnc23)c2ccc(Cl)cc2)cc1F [Compound 41, (4-Chlorophenyl)(3-fluoro-4-methoxyphenyl)borinic acid quinolin-8-yl ester] |  |  |  |  | 1.63 µg/mL (≈ 4.16 µM) | 0.38 µg/mL (≈ 0.97 µM) | 0.935 µg/mL (≈ 2.39 µM) | 0.29 µg/mL (≈ 0.74 µM) |
| C=CB(Oc1cccc2cccnc12)c1cccnc1 [Compound 49, (3-Pyridyl)vinylborinic acid 8-hydroxyquinoline ester] | 1.58 µg/mL | 0.2185 µg/mL | 1.345 µg/mL | 0.45 µg/mL |  |  |  |  |
| N#Cc1cccc(B(Oc2cccc3cccnc23)c2ccccc2F)c1 [Compound 33, (3-Cyanophenyl)(2-fluorophenyl)borinic acid quinolin-8-yl ester] |  |  |  |  | 1.79 µg/mL (≈ 5.08 µM) | 0.3 µg/mL (≈ 0.852 µM) | 1.39 µg/mL (≈ 3.95 µM) | 0.61 µg/mL (≈ 1.73 µM) |
| N#Cc1cccc(B(Oc2cccc3cccnc23)c2cc(F)ccc2F)c1 [Compound 32, (3-Cyanophenyl)(2,5-difluorophenyl)borinic acid quinolin-8-yl ester] |  |  |  |  | 1.82 µg/mL (≈ 4.92 µM) | 0.41 µg/mL (≈ 1.11 µM) | 0.73 µg/mL (≈ 1.97 µM) | 0.41 µg/mL (≈ 1.11 µM) |
| O=C(OB(c1cccnc1)c1cccc(Cl)c1)c1ncccc1O [Compound 70] | >5 µg/mL | 38.3 µg/mL | 28.2 µg/mL | 18.3 µg/mL |  |  |  |  |
| N#Cc1ccc(B(Oc2cccc3cccnc23)c2ccc(F)cc2)cc1 [Compound 22, (4-Cyanophenyl)(4-fluorophenyl)borinic acid quinolin-8-yl ester] |  |  |  |  | 1.46 µg/mL (≈ 4.15 µM) | 0.325 µg/mL (≈ 0.923 µM) | 0.845 µg/mL (≈ 2.4 µM) | 0.34 µg/mL (≈ 0.965 µM) |
| CC1(C)COC(c2cccc(B(Oc3cccc4cccnc34)c3cccc(F)c3)c2)=N1 [Compound 19, [3-(4,5-Dihydro-4,4-dimethyloxazol-2yl)phenyl](3-fluorophenyl)borinic acid quinolin-8-yl ester] |  |  |  |  | 1.89 µg/mL (≈ 4.45 µM) | 0.32 µg/mL (≈ 0.754 µM) | 1.33 µg/mL (≈ 3.15 µM) | 0.66 µg/mL (≈ 1.56 µM) |
| Nc1cccc(C(=O)OB(c2ccc(Cl)cc2)c2ccc(Cl)cc2)n1 [Compound 131] | 0.6855 µg/mL | 7.6 µg/mL | 0.0535 µg/mL | 0.24 µg/mL |  |  |  |  |
| C=CB(Oc1c(Cl)cc(Cl)c2ccc(C)nc12)c1cccc(N(C)C)c1 [Compound 84] | 2.364 µg/mL | 0.915 µg/mL | 1.7 µg/mL | 0.16 µg/mL |  |  |  |  |
| C=CB(Oc1cccc2cccnc12)c1ccc(F)c(Cl)c1 [Compound 116] | 3.95 µg/mL | 0.5865 µg/mL | 3.65 µg/mL | >30 µg/mL |  |  |  |  |
